Assay results from patent publication US6534524B1, “Indazole compounds and pharmaceutical compositions for inhibiting protein kinases, and methods for their use” (Agouron Pharmaceuticals, Inc., priority 1999, dated 2003).
pIC50, pKi: −log10 of the molar value. Where two headings read alike, the source gives them in different places. Values belong to the compound of their own block, whether it stands above or below them.

Assays:
[1] = Human liver microsome (HLM) assay; type: in vitro ADME; details: human liver microsomes, 5 μM test compound
Description: Human Liver Microsome (HLM) Assay Compound metabolism in human liver microsomes was measured by LC-MS analytical assay procedures as follows. […] (3 tubes per test compound-triplicate). […] The samples were then transferred to separate polypropylene microcentrifuge tubes and centrifuged at 14000 g for 10 min. (Fisher Micro […] M0017580). For each replicate (#1-3) at each timepoint (0 and 2 h), an aliquot sample of each test compound was combined into a single HPLC vial insert (6 total samples) for LC-MS analysis, which is described below.

[2] = Determination of inhibitor concentration in mouse plasma after intraperitoneal and oral dosing; type: in vivo
In short: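 Plasma levels quantified by HPLC or LC-MS using a standard curve prepared in mouse plasma, following ethyl acetate extraction with internal standard and sodium hydroxide. Sampling at 0.5, 1, 4 h (ocular bleed) and 7 h (cardiac puncture) after oral or intraperitoneal dosing.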

[3] = tested on: human umbilical vein endothelial cells (HUVEC); assay: HUVEC proliferation assay (VEGF-stimulated, MTT); type: cell-based; details: Homo sapiens, HUVEC; read-out: HUVEC IC50
[4] = molecular target: unphosphorylated VEGF-R2Δ50 (FLVK) (Homo sapiens, UniProt P35968, DEL940-989/E990V); assay: VEGF-R2 coupled spectrophotometric assay, unphosphorylated VEGF-R2Δ50 (FLVK); details: for pKi: FLVK Ki, Table 1
[5] = IP, 25 mg/kg, vehicle PEG400:H2O pH 2.3 60:40
[6] = PO, 50 mg/kg, vehicle PEG400:H2O pH 2.3 60:40
[7] = female, IP, 25 mg/kg, vehicle PEG400:H2O pH 2.3 60:40, read-out: Cmin (7 hr conc.)
[8] = female, PO, 50 mg/kg, vehicle PEG400:H2O pH 2.3 60:40, read-out: Cmin (7 hr conc.)
[9] = IP, 25 mg/kg, vehicle PEG400:H2O pH 2.3 30:70
[10] = PO, 50 mg/kg, vehicle PEG400:H2O pH 2.3 30:70
[11] = female, IP, 25 mg/kg, vehicle PEG400:H2O pH 2.3 30:70, read-out: Cmin (7 hr conc.)
[12] = female, PO, 50 mg/kg, vehicle PEG400:H2O pH 2.3 30:70, read-out: Cmin (7 hr conc.)
[13] = PO, 25 mg/kg, vehicle PEG400:H2O pH 2.3 30:70
[14] = female, PO, 25 mg/kg, vehicle PEG400:H2O pH 2.3 30:70, read-out: Cmin (7 hr conc.)

unphosphorylated VEGF-R2Δ50 (FLVK), sequence (P35968 with tags, fused parts or gaps DEL940-989/E990V limits assumed): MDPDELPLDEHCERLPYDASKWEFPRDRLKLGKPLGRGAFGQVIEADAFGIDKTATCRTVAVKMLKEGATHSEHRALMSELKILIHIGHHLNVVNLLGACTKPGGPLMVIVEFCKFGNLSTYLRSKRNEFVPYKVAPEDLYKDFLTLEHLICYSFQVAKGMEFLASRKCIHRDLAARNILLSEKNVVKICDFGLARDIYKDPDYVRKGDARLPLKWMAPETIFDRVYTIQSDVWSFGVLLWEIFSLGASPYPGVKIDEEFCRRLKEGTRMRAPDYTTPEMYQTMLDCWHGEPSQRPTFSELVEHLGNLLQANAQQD

Compound: O=C(N[C@@H]1C[C@H]1c1ccccc1)c1ccccc1Sc1ccc2c(/C=C/c3ccccn3)n[nH]c2c1 (racemic) [Example 34]
- % remain (HLM, 2 h) [1]: 28%

Compound: O=C(Nc1cccc(Oc2ccc3c(/C=C/c4ccccc4)n[nH]c3c2)c1)c1ccccc1 [Example 4(a), N-[3-(3-Styryl-1H-indazol-6-yloxy)-phenyl]-benzamide]
- % remain (HLM, 2 h) [1]: 35%

Compound: O=C(c1cccc(NC(=O)c2ccccn2)c1)c1ccc2c(/C=C/c3ccccc3)n[nH]c2c1 [Example 19(k), 6-[3-(Pyridin-2-ylcarboxamido)benzoyl]-3-E-styryl-1H-indazole]
- % remain (HLM, 2 h) [1]: 58%
- AUClast [2, 5]: 428 ng·h/mL
- Cmax [2, 5]: 149 ng/mL
- plasma half-life (T1/2) [2, 5]: 2.2 h
- AUClast [2, 6]: 19 ng·h/mL
- Cmax [2, 6]: 8 ng/mL
- plasma half-life (T1/2) [2, 6]: 2.2 h
- concentration at 7 h [2, 7]: 15 ng/mL
- concentration at 7 h [2, 8]: 4 ng/mL

Compound: CC(=O)Nc1cccc(Sc2ccc3c(/C=C/c4ccccc4)n[nH]c3c2)c1 [Example 20(a), 6-(3-Acetamido-phenylsulfanyl)-3-styryl-1H-indazole]
- % remain (HLM, 2 h) [1]: 52%

Compound: CNC(=O)c1ccccc1Sc1ccc2c(/C=C/c3ccccn3)n[nH]c2c1 [Example 33(a), 6-[2-(methylcarbamoyl)phenylsulfanyl]-3-E-[2-(pyridin-2-yl)ethenyl]indazole]
- % remain (HLM, 2 h) [1]: 29%
- AUClast [2, 9]: 13813 ng·h/mL
- Cmax [2, 9]: 13794 ng/mL
- AUClast [2, 10]: 19067 ng·h/mL
- Cmax [2, 10]: 23562 ng/mL
- Cmax ([2]; female, PO, 25 mg/kg, vehicle 0.5% CMC, read-out: Cmax): 721 ng/mL
- Cmax ([2]; female, PO, 100 mg/kg, vehicle 0.5% CMC, read-out: Cmax): 3560 ng/mL

- % remain (HLM, 2 h) [1]: 33%
- AUClast [2, 9]: 2032 ng·h/mL
- Cmax [2, 9]: 2138 ng/mL
- plasma half-life (T1/2) [2, 9]: 1.4 h
- AUClast [2, 10]: 2445 ng·h/mL
- Cmax [2, 10]: 1780 ng/mL
- plasma half-life (T1/2) [2, 10]: 0.9 h
- concentration at 7 h [2, 11]: 24 ng/mL
- concentration at 7 h [2, 12]: 10 ng/mL
Compound: CCCNC(=O)c1ccccc1Sc1ccc2c(/C=C/c3ccccn3)n[nH]c2c1 [Example 35(a), 6-[2-(n-Propylcarbamoyl)phenylsulfanyl]-3-E-[2-(pyridin-2-yl)ethenyl]-1H-indazole]

- % remain (HLM, 2 h) [1]: 15%
- AUClast [2, 13]: 4036 ng·h/mL
- plasma half-life (T1/2) [2, 13]: 2.1 h
- concentration at 7 h [2, 14]: 106 ng/mL
Compound: COc1cccc(CNC(=O)c2ccccc2Sc2ccc3c(/C=C/c4ccccn4)n[nH]c3c2)c1 [Example 35(aa)]

- % remain (HLM, 2 h) [1]: 8%
Compound: O=C(NCc1ccco1)c1ccccc1Sc1ccc2c(/C=C/c3ccccn3)n[nH]c2c1 [Example 35(bb), 6-[2-((fur-2-yl)Methylcarbamoyl)phenylsulfanyl]-3-E-[2-(pyridin-2-yl)ethenyl]-1H-indazole]

- % remain (HLM, 2 h) [1]: 17%
- AUClast [2, 9]: 9408 ng·h/mL
- Cmax [2, 9]: 1976 ng/mL
- plasma half-life (T1/2) [2, 9]: 3.2 h
- AUClast [2, 10]: 4744 ng·h/mL
- plasma half-life (T1/2) [2, 10]: 4.9 h
- concentration at 7 h [2, 11]: 465 ng/mL
- concentration at 7 h [2, 12]: 321 ng/mL
Compound: O=C(NC1CCC1)c1ccccc1Sc1ccc2c(/C=C/c3ccccn3)n[nH]c2c1 [Example 35(c), 6-[2-(Cyclobutylcarbamoyl)phenylsulfanyl]-3-E-[2-(pyridin-2-yl)ethenyl]-1H-indazole]

Compound: C#CCNC(=O)c1ccccc1Sc1ccc2c(/C=C/c3ccccn3)n[nH]c2c1 [Example 35(cc), 6-[2-(2-Propynylcarbamoyl)phenylsulfanyl]-3-E-[2-(pyridin-2-yl)ethenyl]-1H-indazole]
- % remain (HLM, 2 h) [1]: 31%
- AUClast [2, 9]: 2223 ng·h/mL
- plasma half-life (T1/2) [2, 9]: 1.4 h
- AUClast [2, 10]: 1718 ng·h/mL
- plasma half-life (T1/2) [2, 10]: 0.9 h
- concentration at 7 h [2, 11]: 6 ng/mL
- concentration at 7 h [2, 12]: 5 ng/mL

- % remain (HLM, 2 h) [1]: 34%
- AUClast [2, 9]: 2409 ng·h/mL
- plasma half-life (T1/2) [2, 9]: 1.8 h
- AUClast [2, 10]: 1503 ng·h/mL
- plasma half-life (T1/2) [2, 10]: 0.9 h
- concentration at 7 h [2, 11]: 65 ng/mL
- concentration at 7 h [2, 12]: 6 ng/mL
Compound: Cn1cccc1C(=O)NNC(=O)c1ccccc1Sc1ccc2c(/C=C/c3ccccn3)n[nH]c2c1 [Example 35(e), 6-[2-((1-Methylpyrrol-2-ylhydrazido)carbonyl)phenylsulfanyl]-3-E-[2-(pyridin-2-yl)ethenyl]-1H-indazole]

- % remain (HLM, 2 h) [1]: 13%
- AUClast [2, 9]: 546 ng·h/mL
- plasma half-life (T1/2) [2, 9]: 1.5 h
- AUClast [2, 13]: 157 ng·h/mL
- plasma half-life (T1/2) [2, 13]: 14.6 h
- concentration at 7 h [2, 11]: 2 ng/mL
- concentration at 7 h [2, 14]: 9 ng/mL
Compound: C=C(C)CNC(=O)c1ccccc1Sc1ccc2c(/C=C/c3ccccn3)n[nH]c2c1 [Example 35(ee), 6-[2-(2-Methyl-2-propenylcarbamoyl)phenylsulfanyl]-3-E-[2-(pyridin-2-yl)ethenyl]-1H-indazole]

- % remain (HLM, 2 h) [1]: 15%
Compound: O=C(NCc1ccccc1F)c1ccccc1Sc1ccc2c(/C=C/c3ccccn3)n[nH]c2c1 [Example 35(f)]

- % remain (HLM, 2 h) [1]: 53%
- AUClast [2, 13]: 231 ng·h/mL
- plasma half-life (T1/2) [2, 13]: 16.1 h
- concentration at 7 h [2, 14]: 28 ng/mL
Compound: COc1ccc(CNC(=O)c2ccccc2Sc2ccc3c(/C=C/c4ccccn4)n[nH]c3c2)cc1 [Example 35(g)]

- % remain (HLM, 2 h) [1]: 9%
- AUClast [2, 9]: 59 ng·h/mL
- plasma half-life (T1/2) [2, 9]: 1.5 h
- AUClast [2, 10]: 26 ng·h/mL
- Cmax [2, 10]: 7 ng/mL
- concentration at 7 h [2, 11]: 1 ng/mL
- concentration at 7 h [2, 12]: 2 ng/mL
Compound: Cc1ccc(CNC(=O)c2ccccc2Sc2ccc3c(/C=C/c4ccccn4)n[nH]c3c2)o1 [Example 35(h), 6-[2-((5-Methylfur-2-yl)methylcarbamoyl)phenylsulfanyl]-3-E-[2-(pyridin-2-yl)ethenyl]-1H-indazole]

- % remain (HLM, 2 h) [1]: 14%
- AUClast [2, 9]: 2640 ng·h/mL
- plasma half-life (T1/2) [2, 9]: 1.4 h
- AUClast [2, 10]: 5529 ng·h/mL
- plasma half-life (T1/2) [2, 10]: 1.4 h
- concentration at 7 h [2, 11]: 35 ng/mL
- concentration at 7 h [2, 12]: 33 ng/mL
Compound: CC(C)ONC(=O)c1ccccc1Sc1ccc2c(/C=C/c3ccccn3)n[nH]c2c1 [Example 35(k), 6-[2-(Isopropoxycarbamoyl)phenylsulfanyl]-3-E-[2-(pyridin-2-yl)ethenyl]-1H-indazole]

- % remain (HLM, 2 h) [1]: 27%
Compound: C=CCNC(=O)c1ccccc1Sc1ccc2c(/C=C/c3ccccn3)n[nH]c2c1 [Example 35(u), 6-[2-(Allylcarbamoyl)phenylsulfanyl]-3-E-[2-(pyridin-2-yl)ethenyl]-1H-indazole]

- % remain (HLM, 2 h) [1]: 21%
Compound: CCONC(=O)c1cccc(F)c1Sc1ccc2c(/C=C/c3ccccn3)n[nH]c2c1 [Example 37(a), 6-[6-Fluoro-2-(ethoxycarbamoyl)phenylsulfanyl]-3-E-[2-(pyridin-2-yl)ethenyl]-1H-indazole]

Compound: CNC(=O)c1ccccc1Nc1ccc2c(/C=C/c3ccccn3)n[nH]c2c1 [Example 39(a), 6-[2-(Methylcarbamoyl)phenylamino]-3-E-[2-(pyridin-2-yl)ethenyl]-1H-indazole]
- pIC50 [3]: 8.85
- inhibition at 0.05 µM ([4]; read-out: FLVK % inhibition): 53%
- plasma half-life (T1/2) [2, 13]: 1.4 h
- AUC(0-t) ([2]; female, PO, 25 mg/kg, vehicle PEG400:H2O pH 2.3 30:70): > 14800 ng·h/mL
- Cmax ([2]; female, PO, 25 mg/kg, vehicle PEG400:H2O pH 2.3 30:70, read-out: Cmax): > 4000 ng/mL
- concentration at 7 h [2, 14]: 219 ng/mL

Compound: O=C(Cc1cc(F)cc(F)c1)Nc1cccc(C(=O)c2ccc3c(/C=C/c4ccccn4)n[nH]c3c2)c1 [Example 41(f), 6-[3-(3,5-Difluorophenylacetamido)benzoyl]-3-E-[2-(pyridin-2-yl)ethenyl]-1H-indazole]
- % remain (HLM, 2 h) [1]: 59%

Compound: COc1cc(C(=O)Nc2cccc(C(=O)c3ccc4c(/C=C/c5ccccn5)n[nH]c4c3)c2)cc(Cl)n1 [Example 41(u), 6-[3-((2-Chloro-6-methoxypyridin-4-yl)carboxanido)benzoyl]-3-E-[2-(pyridin-2-yl)ethenyl]-1H-indazole]
- pKi [4]: 10.10
- AUClast [2, 13]: 875 ng·h/mL
- Cmax [2, 13]: 224 ng/mL
- plasma half-life (T1/2) [2, 13]: 5.6 h
- concentration at 7 h [2, 14]: 51 ng/mL

Compound: O=C(Nc1cccc(C(=O)c2ccc3c(-c4nc5cccnc5[nH]4)n[nH]c3c2)c1)c1ccccc1 [Example 42(d), 6-(3-Benzaniidobenzoyl)-3-(3H-imidazo[4,5-b]pyridin-2-yl)-1H-indazole]
- pKi [4]: 8.77
- AUClast [2, 5]: 1774 ng·h/mL
- plasma half-life (T1/2) [2, 5]: 1.4 h
- AUClast [2, 6]: 46 ng·h/mL
- plasma half-life (T1/2) [2, 6]: BLQ
- concentration at 7 h [2, 7]: 31 ng/mL
- concentration at 7 h [2, 8]: 18 ng/mL
